Tests used:
Glucagon receptor = Glucagon receptor (Homo sapiens, UniProt P47871); assay: Agonist activity at GCGR expressed in HEK293 cells assessed as stimulation of cAMP production by luciferase reporter gene assay; format: functional, cell-based
[1] = target: Glucagon-like peptide 1 receptor (Homo sapiens, UniProt P43220); assay: Agonist activity at GLP1R expressed in HEK293 cells assessed as stimulation of cAMP production by luciferase reporter gene assay; format: functional, cell-based
Sequence of Glucagon-like peptide 1 receptor (P43220 whole entry): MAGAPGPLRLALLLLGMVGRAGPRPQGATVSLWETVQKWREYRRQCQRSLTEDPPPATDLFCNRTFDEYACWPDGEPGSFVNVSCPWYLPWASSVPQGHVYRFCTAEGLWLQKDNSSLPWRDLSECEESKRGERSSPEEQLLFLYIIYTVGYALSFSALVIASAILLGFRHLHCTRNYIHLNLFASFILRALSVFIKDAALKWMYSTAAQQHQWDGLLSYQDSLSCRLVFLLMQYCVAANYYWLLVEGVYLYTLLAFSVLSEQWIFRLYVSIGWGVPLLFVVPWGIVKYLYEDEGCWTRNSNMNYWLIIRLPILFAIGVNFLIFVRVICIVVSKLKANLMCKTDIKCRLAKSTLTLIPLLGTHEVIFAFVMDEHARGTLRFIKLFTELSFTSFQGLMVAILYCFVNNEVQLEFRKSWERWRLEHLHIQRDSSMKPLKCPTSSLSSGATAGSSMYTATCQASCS

Sequence of Glucagon receptor (P47871 whole entry): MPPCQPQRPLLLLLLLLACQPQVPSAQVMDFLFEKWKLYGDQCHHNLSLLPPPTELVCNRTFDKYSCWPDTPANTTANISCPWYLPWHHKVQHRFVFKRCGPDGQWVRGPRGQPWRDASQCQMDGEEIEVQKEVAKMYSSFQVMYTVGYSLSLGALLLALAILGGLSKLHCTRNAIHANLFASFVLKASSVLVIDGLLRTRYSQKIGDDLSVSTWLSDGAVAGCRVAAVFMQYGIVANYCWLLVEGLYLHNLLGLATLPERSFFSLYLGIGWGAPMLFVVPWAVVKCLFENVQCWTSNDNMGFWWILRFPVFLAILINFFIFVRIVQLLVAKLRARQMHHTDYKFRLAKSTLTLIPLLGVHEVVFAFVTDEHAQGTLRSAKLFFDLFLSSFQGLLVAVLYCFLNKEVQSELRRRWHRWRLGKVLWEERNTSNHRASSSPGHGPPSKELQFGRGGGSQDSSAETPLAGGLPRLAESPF

EC50 (Glucagon receptor) [nM] | EC50 [1] [nM] | Structure (SMILES)
0.15 | 0.6 | CSCC[C@H](NC(=O)[C@H](CC(C)C)NC(=O)[C@H](Cc1c[nH]c2ccccc12)NC(=O)[C@H](CCC(N)=O)NC(=O)[C@@H](NC(=O)[C@H](Cc1ccccc1)NC(=O)[C@H](CC(=O)O)NC(=O)[C@H](CCC(N)=O)NC(=O)[C@H](C)NC(=O)[C@H](CCCNC(=N)N)NC(=O)[C@H](CCCNC(=N)N)NC(=O)[C@H](CO)NC(=O)[C@H](CC(=O)O)NC(=O)[C@H](CC(C)C)NC(=O)[C@H](Cc1ccc(O)cc1)NC(=O)[C@H](CCCCN)NC(=O)[C@H](CO)NC(=O)[C@H](Cc1ccc(O)cc1)NC(=O)[C@H](CC(=O)O)NC(=O)[C@H](CO)NC(=O)[C@@H](NC(=O)[C@H](Cc1ccccc1)NC(=O)[C@@H](NC(=O)CNC(=O)[C@H](CCC(N)=O)NC(=O)[C@H](CO)N[C@@H](Cc1cnc[nH]1)C(=O)O)[C@@H](C)O)[C@@H](C)O)C(C)C)C(=O)N[C@@H](CC(N)=O)C(=O)N[C@H](C(N)=O)[C@@H](C)O
0.049 | 0.17 | CSCC[C@H](NC(=O)[C@H](CC(C)C)NC(=O)[C@H](Cc1c[nH]c2ccccc12)NC(=O)[C@H](CCC(N)=O)NC(=O)[C@@H](NC(=O)[C@H](Cc1ccccc1)NC(=O)[C@H](CC(=O)O)NC(=O)[C@H](CCC(N)=O)NC(=O)[C@H](C)NC(=O)[C@H](CCCN=C(N)N)NC(=O)[C@H](CCCN=C(N)N)NC(=O)[C@H](CCC(=O)O)NC(=O)[C@H](CC(=O)O)NC(=O)[C@H](CC(C)C)NC(=O)[C@H](Cc1ccc(O)cc1)NC(=O)[C@H](CCCCN)NC(=O)[C@H](CO)NC(=O)[C@H](Cc1ccc(O)cc1)NC(=O)[C@H](CC(=O)O)NC(=O)[C@H](CO)NC(=O)[C@@H](NC(=O)[C@H](Cc1ccccc1)NC(=O)[C@@H](NC(=O)CNC(=O)[C@H](CCC(N)=O)NC(=O)[C@H](CO)N[C@@H](Cc1cnc[nH]1)C(=O)O)[C@@H](C)O)[C@@H](C)O)C(C)C)C(=O)N[C@@H](CC(N)=O)C(=O)N[C@H](C(N)=O)[C@@H](C)O
0.053 | 1.1 | CSCC[C@H](NC(=O)[C@H](CC(C)C)NC(=O)[C@H](Cc1c[nH]c2ccccc12)NC(=O)[C@H](CCC(N)=O)NC(=O)[C@@H](NC(=O)[C@H](Cc1ccccc1)NC(=O)[C@H](CC(=O)O)NC(=O)[C@H](CCC(N)=O)NC(=O)[C@H](C)NC(=O)[C@H](CCCN=C(N)N)NC(=O)[C@H](CCCN=C(N)N)NC(=O)[C@H](CCC(=O)O)NC(=O)[C@H](CC(=O)O)NC(=O)[C@H](CC(C)C)NC(=O)[C@H](Cc1ccc(O)cc1)NC(=O)[C@H](CCCCN)NC(=O)[C@H](CO)NC(=O)[C@H](Cc1ccc(O)cc1)NC(=O)[C@H](CC(=O)O)NC(=O)[C@H](CO)NC(=O)[C@@H](NC(=O)[C@H](Cc1ccccc1)NC(=O)[C@@H](NC(=O)CNC(=O)[C@H](CCC(N)=O)NC(=O)[C@H](CO)N[C@@H](Cc1cnc[nH]1)C(=O)O)[C@@H](C)O)[C@@H](C)O)C(C)C)C(=O)N[C@@H](CC(N)=O)C(=O)N[C@H](C(=O)O)[C@@H](C)O
 | 0.26 | CSCC[C@H](NC(=O)[C@H](CC(C)C)NC(=O)[C@H](Cc1c[nH]c2ccccc12)NC(=O)[C@H](CCC(N)=O)NC(=O)[C@@H](NC(=O)[C@H](Cc1ccccc1)NC(=O)[C@H](CC(=O)O)NC(=O)[C@H](CCC(N)=O)NC(=O)[C@H](C)NC(=O)[C@H](CCCN=C(N)N)NC(=O)[C@H](CCCN=C(N)N)NC(=O)[C@H](CCC(N)=O)NC(=O)[C@H](CC(=O)O)NC(=O)[C@H](CC(C)C)NC(=O)[C@H](Cc1ccc(O)cc1)NC(=O)[C@H](CCCCN)NC(=O)[C@H](CO)NC(=O)[C@H](Cc1ccc(O)cc1)NC(=O)[C@H](CC(=O)O)NC(=O)[C@H](CO)NC(=O)[C@@H](NC(=O)[C@H](Cc1ccccc1)NC(=O)[C@@H](NC(=O)CNC(=O)[C@H](CCC(N)=O)NC(=O)[C@H](CO)N[C@@H](Cc1cnc[nH]1)C(=O)O)[C@@H](C)O)[C@@H](C)O)C(C)C)C(=O)N[C@@H](CC(N)=O)C(=O)N[C@H](C(N)=O)[C@@H](C)O
0.068 | 0.57 | CSCC[C@H](NC(=O)[C@H](CC(C)C)NC(=O)[C@H](Cc1c[nH]c2ccccc12)NC(=O)[C@H](CCC(N)=O)NC(=O)[C@@H](NC(=O)[C@H](Cc1ccccc1)NC(=O)[C@H](CC(=O)O)NC(=O)[C@H](CCC(N)=O)NC(=O)[C@H](C)NC(=O)[C@H](CCCNC(=N)N)NC(=O)[C@H](CCCNC(=N)N)NC(=O)[C@H](CC(=O)O)NC(=O)[C@H](CC(=O)O)NC(=O)[C@H](CC(C)C)NC(=O)[C@H](Cc1ccc(O)cc1)NC(=O)[C@H](CCCCN)NC(=O)[C@H](CO)NC(=O)[C@H](Cc1ccc(O)cc1)NC(=O)[C@H](CC(=O)O)NC(=O)[C@H](CO)NC(=O)[C@@H](NC(=O)[C@H](Cc1ccccc1)NC(=O)[C@@H](NC(=O)CNC(=O)[C@H](CCC(N)=O)NC(=O)[C@H](CO)N[C@@H](Cc1cnc[nH]1)C(=O)O)[C@@H](C)O)[C@@H](C)O)C(C)C)C(=O)N[C@@H](CC(N)=O)C(=O)N[C@H](C(N)=O)[C@@H](C)O
0.13 | 0.58 | CSCC[C@H](NC(=O)[C@H](CC(C)C)NC(=O)[C@H](Cc1c[nH]c2ccccc12)NC(=O)[C@H](CCC(N)=O)NC(=O)[C@@H](NC(=O)[C@H](Cc1ccccc1)NC(=O)[C@H](CC(=O)O)NC(=O)[C@H](CCC(N)=O)NC(=O)[C@H](C)NC(=O)[C@H](CCCN=C(N)N)NC(=O)[C@H](CCCN=C(N)N)NC(=O)CNC(=O)[C@H](CC(=O)O)NC(=O)[C@H](CC(C)C)NC(=O)[C@H](Cc1ccc(O)cc1)NC(=O)[C@H](CCCCN)NC(=O)[C@H](CO)NC(=O)[C@H](Cc1ccc(O)cc1)NC(=O)[C@H](CC(=O)O)NC(=O)[C@H](CO)NC(=O)[C@@H](NC(=O)[C@H](Cc1ccccc1)NC(=O)[C@@H](NC(=O)CNC(=O)[C@H](CCC(N)=O)NC(=O)[C@H](CO)N[C@@H](Cc1cnc[nH]1)C(=O)O)[C@@H](C)O)[C@@H](C)O)C(C)C)C(=O)N[C@@H](CC(N)=O)C(=O)N[C@H](C(N)=O)[C@@H](C)O

Further lines, the molecule ahead of its results:

Structure (SMILES) | EC50 (Glucagon receptor) [nM] | EC50 [1] [nM]
CSCC[C@H](NC(=O)[C@H](CC(C)C)NC(=O)[C@H](Cc1c[nH]c2ccccc12)NC(=O)[C@H](CCC(N)=O)NC(=O)[C@@H](NC(=O)[C@H](Cc1ccccc1)NC(=O)[C@H](CC(=O)O)NC(=O)[C@H](CCC(N)=O)NC(=O)[C@H](C)NC(=O)[C@H](CCCNC(=N)N)NC(=O)[C@H](CCCNC(=N)N)NC(=O)[C@H](Cc1c[nH]cn1)NC(=O)[C@H](CC(=O)O)NC(=O)[C@H](CC(C)C)NC(=O)[C@H](Cc1ccc(O)cc1)NC(=O)[C@H](CCCCN)NC(=O)[C@H](CO)NC(=O)[C@H](Cc1ccc(O)cc1)NC(=O)[C@H](CC(=O)O)NC(=O)[C@H](CO)NC(=O)[C@@H](NC(=O)[C@H](Cc1ccccc1)NC(=O)[C@@H](NC(=O)CNC(=O)[C@H](CCC(N)=O)NC(=O)[C@H](CO)N[C@@H](Cc1cnc[nH]1)C(=O)O)[C@@H](C)O)[C@@H](C)O)C(C)C)C(=O)N[C@@H](CC(N)=O)C(=O)N[C@H](C(N)=O)[C@@H](C)O | 0.1 | 0.23
CSCC[C@H](NC(=O)[C@H](CC(C)C)NC(=O)[C@H](Cc1c[nH]c2ccccc12)NC(=O)[C@H](CCC(N)=O)NC(=O)[C@@H](NC(=O)[C@H](Cc1ccccc1)NC(=O)[C@H](CC(=O)O)NC(=O)[C@H](CCC(N)=O)NC(=O)[C@H](C)NC(=O)[C@H](CCCNC(=N)N)NC(=O)[C@H](CCCNC(=N)N)NC(=O)C[C@H](CCC(=O)O)NC(=O)[C@H](CC(=O)O)NC(=O)[C@H](CC(C)C)NC(=O)[C@H](Cc1ccc(O)cc1)NC(=O)[C@H](CCCCN)NC(=O)[C@H](CO)NC(=O)[C@H](Cc1ccc(O)cc1)NC(=O)[C@H](CC(=O)O)NC(=O)[C@H](CO)NC(=O)[C@@H](NC(=O)[C@H](Cc1ccccc1)NC(=O)[C@@H](NC(=O)CNC(=O)[C@H](CCC(N)=O)NC(=O)[C@H](CO)N[C@@H](Cc1cnc[nH]1)C(=O)O)[C@@H](C)O)[C@@H](C)O)C(C)C)C(=O)N[C@@H](CC(N)=O)C(=O)N[C@H](C(N)=O)[C@@H](C)O | 0.054 | 0.13
CSCC[C@H](NC(=O)[C@H](CC(C)C)NC(=O)[C@H](Cc1c[nH]c2ccccc12)NC(=O)[C@H](CCC(N)=O)NC(=O)[C@@H](NC(=O)[C@H](Cc1ccccc1)NC(=O)[C@H](CC(=O)O)NC(=O)[C@H](CCC(N)=O)NC(=O)[C@H](C)NC(=O)[C@H](CCCNC(=N)N)NC(=O)[C@H](CCCNC(=N)N)NC(=O)[C@H](CCS(=O)(=O)O)NC(=O)[C@H](CC(=O)O)NC(=O)[C@H](CC(C)C)NC(=O)[C@H](Cc1ccc(O)cc1)NC(=O)[C@H](CCCCN)NC(=O)[C@H](CO)NC(=O)[C@H](Cc1ccc(O)cc1)NC(=O)[C@H](CC(=O)O)NC(=O)[C@H](CO)NC(=O)[C@@H](NC(=O)[C@H](Cc1ccccc1)NC(=O)[C@@H](NC(=O)CNC(=O)[C@H](CCC(N)=O)NC(=O)[C@H](CO)N[C@@H](Cc1cnc[nH]1)C(=O)O)[C@@H](C)O)[C@@H](C)O)C(C)C)C(=O)N[C@@H](CC(N)=O)C(=O)N[C@H](C(N)=O)[C@@H](C)O | 0.1 | 0.12
CSCC[C@H](NC(=O)[C@H](CC(C)C)NC(=O)[C@H](Cc1c[nH]c2ccccc12)NC(=O)[C@H](CCC(N)=O)NC(=O)[C@@H](NC(=O)[C@H](Cc1ccccc1)NC(=O)[C@H](CC(=O)O)NC(=O)[C@H](CCC(N)=O)NC(=O)[C@H](C)NC(=O)[C@H](CCCNC(=N)N)NC(=O)[C@H](CCCNC(=N)N)NC(=O)[C@@H](NC(=O)[C@H](CC(=O)O)NC(=O)[C@H](CC(C)C)NC(=O)[C@H](Cc1ccc(O)cc1)NC(=O)[C@H](CCCCN)NC(=O)[C@H](CO)NC(=O)[C@H](Cc1ccc(O)cc1)NC(=O)[C@H](CC(=O)O)NC(=O)[C@H](CO)NC(=O)[C@@H](NC(=O)[C@H](Cc1ccccc1)NC(=O)[C@@H](NC(=O)CNC(=O)[C@H](CCC(N)=O)NC(=O)[C@H](CO)N[C@@H](Cc1cnc[nH]1)C(=O)O)[C@@H](C)O)[C@@H](C)O)[C@@H](C)O)C(C)C)C(=O)N[C@@H](CC(N)=O)C(=O)N[C@H](C(N)=O)[C@@H](C)O | 0.13 | 0.58
